Literature values in PubChem BioAssay AID1259409 (Chemical Carcinogenesis Research Information System (CCRIS), 2018).

System: rodent chemically induced tumor inhibition, incidence and multiplicity
Test: CCRIS tumor inhibitor studies
Settings: Route [Inhibitor]: ORAL; for tumour outcome (control, treated, inhibition, significance): Promoter: NONE USED

## O=[Se](O)O
Carcinogen: AZOXYMETHANE, 25843-45-2, Dose [Inhibitor]: 2.5 PPM IN DIET BEGINNING 1 WK POST CARCINOGEN DOSE FOR DURATION OF STUDY (STUDY DURATION: 39 WK), Species: RAT, Strain/Sex: F344/MALE, Target Tissue: Type of Lesion: DUODENUM: ADENOCARCINOMA, Dose [Carcinogen]: 15 MG/KG BW 1/WK FOR 2 WK
  tumour outcome (control, treated, inhibition, significance): 7/27 (26%), 8/27 (30%), -15%, not significant
Carcinogen: AZOXYMETHANE, 25843-45-2, Dose [Inhibitor]: 2.5 PPM IN DIET BEGINNING 1 WK POST CARCINOGEN DOSE FOR DURATION OF STUDY (STUDY DURATION: 39 WK), Species: RAT, Strain/Sex: F344/MALE, Target Tissue: Type of Lesion: DUODENUM: ADENOMA, Dose [Carcinogen]: 15 MG/KG BW 1/WK FOR 2 WK
  tumour outcome (control, treated, inhibition, significance): 3/27 (11%), 5/27 (19%), -73%, not significant
Carcinogen: AZOXYMETHANE, 25843-45-2, Dose [Inhibitor]: 2.5 PPM IN DIET BEGINNING 3 WK PRIOR TO CARCINOGEN DOSE AND CONTINUING FOR 1 WK POST CARCINOGEN DOSE (STUDY DURATION: 39, Species: RAT, Strain/Sex: F344/MALE, Target Tissue: Type of Lesion: COLON: ADENOCARCINOMA, Dose [Carcinogen]: 15 MG/KG BW 1/WK FOR 2 WK
  tumour outcome (control, treated, inhibition, significance): 10/27 (37%), 9/27 (33%), 11%, not significant
Carcinogen: AZOXYMETHANE, 25843-45-2, Dose [Inhibitor]: 2.5 PPM IN DIET BEGINNING 3 WK PRIOR TO CARCINOGEN DOSE AND CONTINUING FOR 1 WK POST CARCINOGEN DOSE (STUDY DURATION: 39, Species: RAT, Strain/Sex: F344/MALE, Target Tissue: Type of Lesion: COLON: ADENOMA, Dose [Carcinogen]: 15 MG/KG BW 1/WK FOR 2 WK
  tumour outcome (control, treated, inhibition, significance): 16/27 (59%), 13/27 (48%), 19%, not significant
Carcinogen: AZOXYMETHANE, 25843-45-2, Dose [Inhibitor]: 2.5 PPM IN DIET BEGINNING 3 WK PRIOR TO CARCINOGEN DOSE AND CONTINUING FOR 1 WK POST CARCINOGEN DOSE (STUDY DURATION: 39, Species: RAT, Strain/Sex: F344/MALE, Target Tissue: Type of Lesion: DUODENUM: ADENOCARCINOMA, Dose [Carcinogen]: 15 MG/KG BW 1/WK FOR 2 WK
  tumour outcome (control, treated, inhibition, significance): 7/27 (26%), 13/27 (48%), -85%, not significant
Carcinogen: AZOXYMETHANE, 25843-45-2, Dose [Inhibitor]: 2.5 PPM IN DIET BEGINNING 3 WK PRIOR TO CARCINOGEN DOSE AND CONTINUING FOR 1 WK POST CARCINOGEN DOSE (STUDY DURATION: 39, Species: RAT, Strain/Sex: F344/MALE, Target Tissue: Type of Lesion: DUODENUM: ADENOMA, Dose [Carcinogen]: 15 MG/KG BW 1/WK FOR 2 WK
  tumour outcome (control, treated, inhibition, significance): 3/27 (11%), 6/27 (22%), -100%, not significant
Carcinogen: AZOXYMETHANE, 25843-45-2, Dose [Inhibitor]: O.5 PPM IN DIET BEGINNING 3 WK PRIOR TO CARCINOGEN DOSE AND CONTINUING FOR 1 WK POST CARCINOGEN DOSE (STUDY DURATION: 39, Species: RAT, Strain/Sex: F344/MALE, Target Tissue: Type of Lesion: COLON: ADENOCARCINOMA, Dose [Carcinogen]: 15 MG/KG BW 1/WK FOR 2 WK
  tumour outcome (control, treated, inhibition, significance): 10/27 (37%), 8/27 (30%), 19%, not significant
Carcinogen: BENZO[A]PYRENE, 50-32-8, Dose [Inhibitor]: 4 PPM IN DRINKING WATER DAILY FOR 12 MO STARTING 12 MO BEFORE CARCINOGEN TREATMENT (STUDY DURATION: 67 WK), Species: MOUSE, Strain/Sex: BALB/MALE, Target Tissue: Type of Lesion: INJECTION SITE: SARCOMA, Dose [Carcinogen]: 4 UG/G BW ONCE
  tumour outcome (control, treated, inhibition, significance): 31/50 (62%), 14/50 (28%), 55%
Carcinogen: DIETHYLNITROSAMINE [55-18-5], Dose [Inhibitor]: 5 PPM IN DRINKING WATER, 3 WK AFTER PARTIAL HEPATECTOMY TO END AT 12 MO (STUDY DURATION: 12 MO), DRINKING WATER, Species: RAT, Strain/Sex: F344, Target Tissue: Type of Lesion: LIVER: TUMOR DENSITY, Dose [Carcinogen]: 200 MG/KG BW ONCE, Promoter: 2-ACETYLAMINOFLUORENE [53-96-3]
  outcome: 26, 14, 46.2%, p=0.01
Carcinogen: DIETHYLNITROSAMINE, 55-18-5, Dose [Inhibitor]: 0, 1 MG/L IN DRINKING WATER FOR DURATION OF STUDY BEGINNING 7 D PRIOR TO FIRST CARCINOGEN DOSE (STUDY DURATION: 6 MO), Species: RAT, Strain/Sex: BD6/FEMALE, Target Tissue: Type of Lesion: ESOPHAGUS: TUMOR, Dose [Carcinogen]: 80 MG/KG BW 1/WK FOR 8 WK
  tumour outcome (control, treated, inhibition, significance): 30%, 0%, 100%, p<0.05
Carcinogen: DIETHYLNITROSAMINE, 55-18-5, Dose [Inhibitor]: 0, 5 MG/L IN DRINKING WATER FOR DURATION OF STUDY BEGINNING 7 D PRIOR TO CARCINOGEN TREATMENT (STUDY DURATION: 6 MO), Species: RAT, Strain/Sex: BD6/FEMALE, Target Tissue: Type of Lesion: ESOPHAGUS: TUMOR, Dose [Carcinogen]: 80 MG/KG BW 1/WK FOR 9 WK
  tumour outcome (control, treated, inhibition, significance): 50%, 51%, -2%, not significant
Carcinogen: DIETHYLNITROSAMINE, 55-18-5, Dose [Inhibitor]: 0, 5 MG/L IN DRINKING WATER FOR DURATION OF STUDY BEGINNING 7 D PRIOR TO CARCINOGEN TREATMENT (STUDY DURATION: 6 MO), Species: RAT, Strain/Sex: BD6/FEMALE, Target Tissue: Type of Lesion: LIVER: TUMOR, Dose [Carcinogen]: 80 MG/KG BW 1/WK FOR 9 WK
  tumour outcome (control, treated, inhibition, significance): 100%, 95%, 5%, not significant
Carcinogen: DIETHYLNITROSAMINE, 55-18-5, Dose [Inhibitor]: 0, 5 MG/L IN DRINKING WATER FOR DURATION OF STUDY BEGINNING 7 D PRIOR TO FIRST CARCINOGEN DOSE (STUDY DURATION: 6 MO), Species: RAT, Strain/Sex: BD6/FEMALE, Target Tissue: Type of Lesion: ESOPHAGUS: TUMOR, Dose [Carcinogen]: 80 MG/KG BW 1/WK FOR 8 WK
  tumour outcome (control, treated, inhibition, significance): 31%, 50%, -61%, not significant
Carcinogen: DIETHYLNITROSAMINE, 55-18-5, Dose [Inhibitor]: 0, 5 MG/L IN DRINKING WATER FOR DURATION OF STUDY BEGINNING 7 D PRIOR TO FIRST CARCINOGEN DOSE (STUDY DURATION: 6 MO), Species: RAT, Strain/Sex: BD6/FEMALE, Target Tissue: Type of Lesion: LIVER: TUMOR, Dose [Carcinogen]: 80 MG/KG BW 1/WK FOR 8 WK
  tumour outcome (control, treated, inhibition, significance): 94%, 94%, 0%, not significant
Carcinogen: DIETHYLNITROSAMINE, 55-18-5, Dose [Inhibitor]: 0, 10 MG/L IN DRINKING WATER FOR DURATION OF STUDY BEGINNING 4 D POST CARCINOGEN TREATMENT (STUDY DURATION: 6 M0), Species: RAT, Strain/Sex: BD6/FEMALE, Target Tissue: Type of Lesion: LIVER: TUMOR, Dose [Carcinogen]: 80 MG/KG BW 1/WK FOR 9 WK
  tumour outcome (control, treated, inhibition, significance): 100%, 96%, 4%, not significant
